Measurements taken from US20080009418A1, “Selective Inhibitors” (Alchemia LTD., priority 2004, published 2008).

Experiments:
[1] = target: T1, Human δ-opioid (DOP) (Homo sapiens, UniProt P41143); test: Radioligand binding, human δ-opioid (DOP) membranes, FlashPlate, [3H]-Bremazocine; details: compound at 10 μM; for A1 radioligand binding inhibition: human δ-opioid (DOP) membranes
T1 construct: purchased Perkin Elmer Biosignal
In short: (§1)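 Cloned human receptor membranes were coated onto FlashPlate wells and incubated with radioligand and compound (added from a 0.5 mM DMSO daughter plate) for 1 hour at room temperature in the dark. Scintillation counting gave percent inhibition, with DMSO defining total and reference ligand defining non-specific binding.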

[2] = target: T2, Human κ-Opioid (KOP) (Homo sapiens, UniProt P41145); test: Radioligand binding, human κ-opioid (KOP) membranes, filtration, [3H]-Diprenorphine; details: compound at 10 μM; for A2 radioligand binding inhibition: human κ-opioid (KOP) membranes
T2 construct: purchased Perkin Elmer Biosignal
In short: (§2)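 Membranes from cloned human receptors were incubated with compound and radioligand for 1 hour at room temperature. Bound ligand was collected on 0.3% PEI-soaked filters, washed with cold 50 mM Tris-HCl pH 7.4, and counted by scintillation. Percent inhibition was computed against DMSO totals and reference-ligand nonspecific wells.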

[3] = target: T3, Human Melanocortin (MC3) (Homo sapiens, UniProt P41968); test: Radioligand binding, human melanocortin MC3 membranes, FlashPlate, [125I]-NDP-αMSH; details: compound at 10 μM; for A3 radioligand binding inhibition: human melanocortin MC3 membranes
T3 construct: purchased Perkin Elmer Biosignal
In short: as §1

[4] = target: T4, Human Melanocortin (MC4) (Homo sapiens, UniProt P32245); test: Radioligand binding, human melanocortin MC4 membranes, FlashPlate, [125I]-NDP-αMSH; details: compound at 10 μM; for A4 radioligand binding inhibition: human melanocortin MC4 membranes
T4 construct: purchased Perkin Elmer Biosignal
In short: as §1

[5] = target: T5, Human melanocortin (MC5) (Homo sapiens, UniProt P33032); test: Radioligand binding, human melanocortin MC5 membranes, FlashPlate, [125I]-NDP-αMSH; details: compound at 10 μM; for A5 radioligand binding inhibition: human melanocortin MC5 membranes
T5 construct: purchased Perkin Elmer Biosignal
In short: as §1

[6] = target: T6, Human melanin-concentrating hormone (MCH1) (Homo sapiens, UniProt Q99705); test: Radioligand binding, human melanin-concentrating hormone MCH1 membranes, FlashPlate, [125I]-S36057; details: compound at 10 μM; for A6 radioligand binding inhibition: human MCH1 membranes
T6 construct: purchased Perkin Elmer Biosignal
In short: as §1

[7] = target: T7, Human μ-opioid (MOP) (Homo sapiens, UniProt P35372); test: Radioligand binding, human μ-opioid (MOP) membranes, FlashPlate, [3H]-Naloxone; details: compound at 10 μM; for A7 radioligand binding inhibition: human μ-opioid (MOP) membranes
T7 construct: purchased Perkin Elmer Biosignal
In short: as §1

[8] = target: T8, Human neurokinin (NK1) (Homo sapiens, UniProt P25103); test: Radioligand binding, human neurokinin NK1 membranes, filtration, [125I]-Substance P; details: compound at 10 μM; for A8 radioligand binding inhibition: human neurokinin NK1 membranes
T8 construct: purchased Perkin Elmer Biosignal
In short: as §2

[9] = target: T9, Human neuropeptide Y (NPY-Y1) (Homo sapiens, UniProt P25929); test: Radioligand binding, human neuropeptide Y NPY-Y1 membranes, FlashPlate, [125I]-PYY; details: compound at 10 μM; for A9 radioligand binding inhibition: human NPY-Y1 membranes
T9 construct: purchased Perkin Elmer Biosignal
T9 sequence (P25929 1-384): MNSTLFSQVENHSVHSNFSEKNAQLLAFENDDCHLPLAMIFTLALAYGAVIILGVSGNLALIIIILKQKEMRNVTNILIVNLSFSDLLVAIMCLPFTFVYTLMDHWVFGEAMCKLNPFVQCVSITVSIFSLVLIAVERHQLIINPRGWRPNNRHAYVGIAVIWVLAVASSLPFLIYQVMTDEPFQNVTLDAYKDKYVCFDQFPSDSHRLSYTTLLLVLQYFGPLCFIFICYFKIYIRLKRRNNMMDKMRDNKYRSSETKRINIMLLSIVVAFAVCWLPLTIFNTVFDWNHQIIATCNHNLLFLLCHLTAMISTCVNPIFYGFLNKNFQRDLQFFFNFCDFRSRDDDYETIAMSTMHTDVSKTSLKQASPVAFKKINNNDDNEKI
In short: as §1

[10] = target: T10, Human opioid (ORL1) (Homo sapiens, UniProt P41146); test: Radioligand binding, human opioid ORL1 membranes, FlashPlate, [125I]-Nociceptin; details: compound at 10 μM; for A10 radioligand binding inhibition: human ORL1 membranes
T10 construct: purchased Perkin Elmer Biosignal
In short: as §1

[11] = target: T11, Mouse urotensin (mUR2) (Mus musculus, UniProt Q8VIH9); test: Radioligand binding, mouse urotensin mUR2 membranes, FlashPlate, [125I]-Urotensin II; details: compound at 10 μM; for A11 radioligand binding inhibition: mouse urotensin mUR2 membranes
T11 construct: purchased Perkin Elmer Biosignal
T11 sequence (Q8VIH9 1-385): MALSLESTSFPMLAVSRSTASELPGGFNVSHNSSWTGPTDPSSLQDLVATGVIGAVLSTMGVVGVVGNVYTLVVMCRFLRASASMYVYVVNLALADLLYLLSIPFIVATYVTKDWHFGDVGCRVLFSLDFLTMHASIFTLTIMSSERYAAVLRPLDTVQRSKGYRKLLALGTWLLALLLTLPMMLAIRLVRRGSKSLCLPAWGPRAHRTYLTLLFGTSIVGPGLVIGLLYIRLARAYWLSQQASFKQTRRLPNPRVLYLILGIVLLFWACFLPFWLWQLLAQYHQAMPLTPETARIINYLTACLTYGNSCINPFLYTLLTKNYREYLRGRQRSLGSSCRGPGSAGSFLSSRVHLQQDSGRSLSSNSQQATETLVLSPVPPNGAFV
In short: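 Cloned mouse urotensin (mUR2) receptor membranes from Perkin Elmer Biosignal were immobilized in FlashPlate microplates using a proprietary coating. Each well got 19.5 μl buffer, then 0.5 μl of DMSO, reference ligand, or compound. Adding 5 μl of [125I]-Urotensin II, diluted to 5× final concentration in binding buffer, started binding. Plates were sealed with TopSeal-A and incubated 1 hour at room temperature in the dark. Wells were counted for 30 seconds each on a TopCount after a 60-second delay, and percentage inhibition was calculated.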

T1 sequence (P41143 whole entry): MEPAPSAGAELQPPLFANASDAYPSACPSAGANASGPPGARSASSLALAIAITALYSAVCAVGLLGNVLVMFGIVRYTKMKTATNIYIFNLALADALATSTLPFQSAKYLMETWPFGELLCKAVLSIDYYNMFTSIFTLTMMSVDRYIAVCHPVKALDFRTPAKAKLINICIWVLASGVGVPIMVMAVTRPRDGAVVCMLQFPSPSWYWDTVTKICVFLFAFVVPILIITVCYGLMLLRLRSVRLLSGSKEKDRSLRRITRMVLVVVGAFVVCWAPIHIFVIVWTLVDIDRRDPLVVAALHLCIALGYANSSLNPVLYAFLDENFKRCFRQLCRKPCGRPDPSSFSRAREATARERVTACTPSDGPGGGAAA
T4 sequence (P32245 whole entry): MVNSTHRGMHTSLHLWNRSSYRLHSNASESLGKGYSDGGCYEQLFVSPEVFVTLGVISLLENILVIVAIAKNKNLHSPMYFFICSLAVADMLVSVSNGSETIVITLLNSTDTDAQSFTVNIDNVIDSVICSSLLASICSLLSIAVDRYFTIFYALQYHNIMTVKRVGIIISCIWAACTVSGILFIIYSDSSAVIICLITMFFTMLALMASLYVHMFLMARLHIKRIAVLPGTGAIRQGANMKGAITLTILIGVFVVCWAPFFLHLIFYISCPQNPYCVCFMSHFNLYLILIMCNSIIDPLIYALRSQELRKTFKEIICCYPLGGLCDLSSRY
T6 sequence (Q99705 whole entry): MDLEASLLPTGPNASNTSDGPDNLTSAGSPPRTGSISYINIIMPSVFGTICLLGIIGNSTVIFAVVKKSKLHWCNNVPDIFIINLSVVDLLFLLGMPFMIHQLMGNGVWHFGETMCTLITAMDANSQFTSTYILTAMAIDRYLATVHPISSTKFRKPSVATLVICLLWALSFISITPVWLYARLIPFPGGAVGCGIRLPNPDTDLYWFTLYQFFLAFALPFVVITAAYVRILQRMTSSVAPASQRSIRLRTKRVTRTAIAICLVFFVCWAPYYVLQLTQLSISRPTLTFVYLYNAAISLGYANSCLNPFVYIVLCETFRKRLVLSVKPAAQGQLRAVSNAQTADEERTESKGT
T2 sequence (P41145 whole entry): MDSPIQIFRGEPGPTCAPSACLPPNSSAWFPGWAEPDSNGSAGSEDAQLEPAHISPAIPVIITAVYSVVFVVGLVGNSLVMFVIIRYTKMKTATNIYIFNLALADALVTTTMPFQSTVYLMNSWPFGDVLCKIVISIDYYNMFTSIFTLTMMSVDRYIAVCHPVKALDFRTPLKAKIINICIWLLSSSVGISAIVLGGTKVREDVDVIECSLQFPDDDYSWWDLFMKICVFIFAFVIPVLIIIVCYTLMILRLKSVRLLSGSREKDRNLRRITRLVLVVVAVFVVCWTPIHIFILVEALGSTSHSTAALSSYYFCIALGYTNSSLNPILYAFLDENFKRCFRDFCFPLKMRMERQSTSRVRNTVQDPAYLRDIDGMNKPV
T10 sequence (P41146 whole entry): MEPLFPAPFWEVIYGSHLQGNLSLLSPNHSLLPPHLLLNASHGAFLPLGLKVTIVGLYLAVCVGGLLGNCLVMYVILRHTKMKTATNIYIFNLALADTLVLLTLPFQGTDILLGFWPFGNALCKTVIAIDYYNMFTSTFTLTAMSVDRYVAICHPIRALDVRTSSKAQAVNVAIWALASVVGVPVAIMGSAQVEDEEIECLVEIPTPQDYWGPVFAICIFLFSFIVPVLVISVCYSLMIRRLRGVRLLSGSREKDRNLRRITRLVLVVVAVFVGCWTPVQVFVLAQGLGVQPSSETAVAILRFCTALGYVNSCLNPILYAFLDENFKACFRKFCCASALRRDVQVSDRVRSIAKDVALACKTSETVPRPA
T8 sequence (P25103 whole entry): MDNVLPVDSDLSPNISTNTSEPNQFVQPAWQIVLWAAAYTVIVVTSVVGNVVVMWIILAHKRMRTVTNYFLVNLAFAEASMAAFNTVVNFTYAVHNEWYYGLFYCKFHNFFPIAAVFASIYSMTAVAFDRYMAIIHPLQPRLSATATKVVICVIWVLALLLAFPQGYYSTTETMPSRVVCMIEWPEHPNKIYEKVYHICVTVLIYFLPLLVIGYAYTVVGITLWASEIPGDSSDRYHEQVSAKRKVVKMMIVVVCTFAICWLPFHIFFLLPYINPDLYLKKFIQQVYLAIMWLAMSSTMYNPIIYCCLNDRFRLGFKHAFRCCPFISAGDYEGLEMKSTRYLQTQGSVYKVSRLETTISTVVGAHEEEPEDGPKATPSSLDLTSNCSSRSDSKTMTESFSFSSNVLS
T5 sequence (P33032 whole entry): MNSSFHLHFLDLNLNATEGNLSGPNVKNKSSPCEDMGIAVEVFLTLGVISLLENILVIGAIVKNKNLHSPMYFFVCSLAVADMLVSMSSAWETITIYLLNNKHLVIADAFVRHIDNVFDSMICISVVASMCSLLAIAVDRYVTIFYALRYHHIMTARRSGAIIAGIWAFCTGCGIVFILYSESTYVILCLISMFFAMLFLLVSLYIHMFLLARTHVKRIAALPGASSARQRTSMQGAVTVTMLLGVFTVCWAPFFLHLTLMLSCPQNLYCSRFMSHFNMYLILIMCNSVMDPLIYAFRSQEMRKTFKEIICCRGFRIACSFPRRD
T7 sequence (P35372 whole entry): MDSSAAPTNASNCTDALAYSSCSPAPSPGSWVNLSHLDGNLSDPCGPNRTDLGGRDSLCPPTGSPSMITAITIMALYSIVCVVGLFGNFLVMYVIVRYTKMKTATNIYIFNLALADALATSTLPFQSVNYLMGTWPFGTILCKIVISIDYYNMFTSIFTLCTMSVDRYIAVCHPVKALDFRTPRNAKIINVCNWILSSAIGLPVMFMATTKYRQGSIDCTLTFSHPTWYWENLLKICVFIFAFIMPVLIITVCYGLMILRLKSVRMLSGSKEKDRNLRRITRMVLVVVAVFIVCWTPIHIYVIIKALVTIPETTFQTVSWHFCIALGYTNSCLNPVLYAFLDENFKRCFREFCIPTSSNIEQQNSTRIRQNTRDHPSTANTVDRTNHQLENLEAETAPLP
T3 sequence (P41968 whole entry): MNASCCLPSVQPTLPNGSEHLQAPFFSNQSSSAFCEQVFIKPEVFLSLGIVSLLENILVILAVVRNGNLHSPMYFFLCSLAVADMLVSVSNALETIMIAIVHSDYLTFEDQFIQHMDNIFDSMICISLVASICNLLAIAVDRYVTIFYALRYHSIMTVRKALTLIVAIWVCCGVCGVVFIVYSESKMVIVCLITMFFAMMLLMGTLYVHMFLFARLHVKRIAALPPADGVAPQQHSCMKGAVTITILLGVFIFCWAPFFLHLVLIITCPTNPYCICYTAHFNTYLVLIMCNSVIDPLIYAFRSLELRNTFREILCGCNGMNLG

Row | Structure (SMILES) | A1 radioligand binding inhibition [1] | A2 radioligand binding inhibition [2] | A3 radioligand binding inhibition [3] | A4 radioligand binding inhibition [4] | A5 radioligand binding inhibition [5] | A6 radioligand binding inhibition [6] | A7 radioligand binding inhibition [7] | A8 radioligand binding inhibition [8] | A9 radioligand binding inhibition [9] | A10 radioligand binding inhibition [10] | A11 radioligand binding inhibition [11] | further results
1 | CO[C@H]1[C@H](O)[C@@H](COCc2ccc3ccccc3c2)OC(OCc2ccc(-c3ccccc3)cc2)[C@@H]1NC(=O)CNC(=N)N (stereo partly shown) [compound 55] | − (“−” indicates less than 50% inhibition at 10 μM) | + (“+” indicates greater than 50% inhibition at 10 μM) | + (“+” indicates greater than 50% inhibition at 10 μM) | + (“+” indicates greater than 50% inhibition at 10 μM) | + (“+” indicates greater than 50% inhibition at 10 μM) | + (“+” indicates greater than 50% inhibition at 10 μM) | + (“+” indicates greater than 50% inhibition at 10 μM) | + (“+” indicates greater than 50% inhibition at 10 μM) | − (“−” indicates less than 50% inhibition at 10 μM) | + (“+” indicates greater than 50% inhibition at 10 μM) | − (“−” indicates less than 50% inhibition at 10 μM) | –
2 | COC[C@H]1OC(OCc2ccc3ccccc3c2)[C@H](NC(=O)CNC(=N)N)[C@@H](OCc2ccc3ccccc3c2)[C@@H]1O (stereo partly shown) [compound 17] | − (“−” indicates less than 50% inhibition at 10 μM) | − (“−” indicates less than 50% inhibition at 10 μM) | − (“−” indicates less than 50% inhibition at 10 μM) | + (“+” indicates greater than 50% inhibition at 10 μM) | + (“+” indicates greater than 50% inhibition at 10 μM) | + (“+” indicates greater than 50% inhibition at 10 μM) | + (“+” indicates greater than 50% inhibition at 10 μM) | + (“+” indicates greater than 50% inhibition at 10 μM) | − (“−” indicates less than 50% inhibition at 10 μM) | − (“−” indicates less than 50% inhibition at 10 μM) | − (“−” indicates less than 50% inhibition at 10 μM) | –
3 | CSC1OC(COCc2ccc(Cl)cc2)C(O)C(OCc2ccc3ccccc3c2)C1NC(=O)CNC(=N)N (stereo not shown) [compound 307] | – | – | – | – | – | – | – | – | – | – | – | A1: inhibition of radioligand binding, human δ-opioid (DOP) ([1]; [3H]-Bremazocine): − (“−” indicates less than 50% inhibition at 10 μM); A2: inhibition of radioligand binding, human κ-opioid (KOP) ([2]; [3H]-Diprenorphine): − (“−” indicates less than 50% inhibition at 10 μM); A3: inhibition of radioligand binding, human melanocortin (MC3) ([3]; [125I]-NDP-αMSH): + (“+” indicates greater than 50% inhibition at 10 μM); A4: inhibition of radioligand binding, human melanocortin (MC4) ([4]; [125I]-NDP-αMSH): + (“+” indicates greater than 50% inhibition at 10 μM); A5: inhibition of radioligand binding, human melanocortin (MC5) ([5]; [125I]-NDP-αMSH): + (“+” indicates greater than 50% inhibition at 10 μM); A6: inhibition of radioligand binding, human melanin-concentrating hormone (MCH1) ([6]; [125I]-S36057): − (“−” indicates less than 50% inhibition at 10 μM); A7: inhibition of radioligand binding, human μ-opioid (MOP) ([7]; [3H]-Naloxone): − (“−” indicates less than 50% inhibition at 10 μM); A8: inhibition of radioligand binding, human neurokinin (NK1) ([8]; [125I]-Substance P): + (“+” indicates greater than 50% inhibition at 10 μM); A9: inhibition of radioligand binding, human neuropeptide Y (NPY-Y1) ([9]; [125I]-PYY): − (“−” indicates less than 50% inhibition at 10 μM); A10: inhibition of radioligand binding, human opioid (ORL1) ([10]; [125I]-Nociceptin): − (“−” indicates less than 50% inhibition at 10 μM); A11: inhibition of radioligand binding, mouse urotensin (mUR2) ([11]; [125I]-Urotensin II): − (“−” indicates less than 50% inhibition at 10 μM)
4 | CO[C@H]1[C@H](O)[C@@H](COCc2ccc(Cl)cc2)OC(OCc2ccccc2)[C@@H]1NC(=O)CCNC(=N)N (stereo partly shown) [compound 91] | − (“−” indicates less than 50% inhibition at 10 μM) | − (“−” indicates less than 50% inhibition at 10 μM) | − (“−” indicates less than 50% inhibition at 10 μM) | − (“−” indicates less than 50% inhibition at 10 μM) | − (“−” indicates less than 50% inhibition at 10 μM) | − (“−” indicates less than 50% inhibition at 10 μM) | − (“−” indicates less than 50% inhibition at 10 μM) | + (“+” indicates greater than 50% inhibition at 10 μM) | − (“−” indicates less than 50% inhibition at 10 μM) | − (“−” indicates less than 50% inhibition at 10 μM) | − (“−” indicates less than 50% inhibition at 10 μM) | –
5 | COCC1OC(OCc2ccccc2)C(NC(=O)CCCN)C(OCc2ccccc2)C1O (stereo not shown) [compound 174] | – | – | – | – | – | – | – | – | – | – | – | A1 radioligand binding, percentage inhibition ([1]; [3H]-Bremazocine): − (“−” indicates less than 50% inhibition at 10 μM); A2 radioligand binding, percentage inhibition ([2]; [3H]-Diprenorphine): − (“−” indicates less than 50% inhibition at 10 μM); A3 radioligand binding, percentage inhibition ([3]; [125I]-NDP-αMSH): − (“−” indicates less than 50% inhibition at 10 μM); A4 radioligand binding, percentage inhibition ([4]; [125I]-NDP-αMSH): − (“−” indicates less than 50% inhibition at 10 μM); A5 radioligand binding, percentage inhibition ([5]; [125I]-NDP-αMSH): − (“−” indicates less than 50% inhibition at 10 μM); A6 radioligand binding, percentage inhibition ([6]; [125I]-S36057): − (“−” indicates less than 50% inhibition at 10 μM); A7 radioligand binding, percentage inhibition ([7]; [3H]-Naloxone): − (“−” indicates less than 50% inhibition at 10 μM); A8 radioligand binding, percentage inhibition ([8]; [125I]-Substance P): + (“+” indicates greater than 50% inhibition at 10 μM); A9 radioligand binding, percentage inhibition ([9]; [125I]-PYY): − (“−” indicates less than 50% inhibition at 10 μM); A10 radioligand binding, percentage inhibition ([10]; [125I]-Nociceptin): − (“−” indicates less than 50% inhibition at 10 μM); A11 radioligand binding, percentage inhibition ([11]; [125I]-Urotensin II): − (“−” indicates less than 50% inhibition at 10 μM)
